Data reported in US5202130A, “Suppression of eczematous dermatitis by calcium transport inhibition” (The Johns Hopkins University, priority 1989, dated 1993).
Counter-ions that a name gives are not always drawn. Like-named read-outs stand apart in the source and are kept apart here.

Tests used:
[1] = stated with intraperitoneal administration in mice; no test described; cited from earlier work
[2] = test system: contact sensitization against DNCB; experiment: Inhibition of sensitization by diltiazem against DNCB (ear swelling); assay type: in vivo, BALB/c mice
Description: Diltiazem HCl (1,5-Benzothiazepin-4(5H)one, 3-acetoy lox-5-(2-(dimethylamine)ethyl)-2, 3-dihydro-2(4-methoxyphenyl)-, monohydrochloride, (+)-cis) was injected intraperitoneally in a dose of 30 mg/kg (LD50 =60 mg per kg) two times a day for three days. Two hours after the first injection, mice were sensitized by applying DNCB to the shaved dorsal back skin. Contact sensitization against DNCB was determined five days later.

[3] = following intraperitoneal administration; cited from earlier work
[4] = test system: epidermal Langerhans cells (ELC); experiment: Density and morphology of epidermal Langerhans cells, ATPase and Ia staining; assay type: in vivo, BALB/c mice
Excerpt: Mice were sacrificed by cervical dislocation and their ears were amputated at the base. The skin was separated from underlying cartilage by dissection and pressed dermal side up onto an adhesive surface of a double stick tape (Dermotome Tape, 3M, St. Paul, Minn.), that had previously been fixed onto a glass slide. […] (25,26), then the epidermis was separated as an intact sheet from the underlying dermis.
Epidermal sheets were stained for ATPase activity according to MacKenzie and Squier (27). Briefly, epidermal sheets were fixed in Tris-maleic acid buffered 4% paraformaldehyde, pH 7.3, for 20 minutes at 4° C. After three washes with a 0.9% NaCl solution, the epidermal sheets were incubated at pH 7.3 in a solution containing 10 mg ATP, 5 ml of 10% MgSO4, 3 ml of 2% […], and 42 ml Tris-maleic acid buffer for one hour at 37° C., washed with 0.9% NaCl solution, and reacted with 0.1% ammonium sulfide for five minutes at room temperature. The stained specimens were mounted in a 9:1 mixture of PBS/glycerol.
Ia-positive cells were stained as follows: EDTA separated epidermal specimens, washed in PBS for 30 minutes, were fixed in cold acetone (-20° C.) for 20 minutes. After washing with PBS, the epidermal sheets were incubated with a 1:100 dilution of anti-mouse I-A^d monoclonal antibody (Becton Dickinson, Mountain View, Calif.) at 4° C. overnight (28). Subsequently, specimens were washed in PBS for two hours and exposed to fluorescein conjugated F(ab')2 fragment goat anti-mouse IgG (Organon Teknika Corp., West Chester, Pa.) at a 1:50 dilution for two hours at 37° C. The epidermal sheets were mounted in Perma Fluor (Lipshaw, Detroit, Mich.).
Slides were coded and read in a "blinded" manner. The density of ELC within each epidermal sheet was determined by using a dual epifluorescent and light microscope (Olympus BH-2, Japan) with a calibrated net micrometer grid. ATPase-positive ELC and Ia-positive ELC present in a 0.25 mm^2 area were counted in two random fields per sheet (total: 16 fields per experimental group). ELC density was recorded as the number of cells per mm^2 (mean ±S.E.). Statistical significance of the differences between treatment and control groups was calculated using a two-talled Wilcoxon Rank Sum Test. Differences between groups were considered significant at p=0.05.

formaldehyde allergy = experiment: Prevention of inflammatory reaction by topical La^3+, patch test with formaldehyde; assay type: in vivo, human (patient); conditions: 2% in hydrophilic ointment base, read at 72 hours
Description: In this example, a patient with known allergy against for formaldehyde was challenged with formaldehyde in the presence of lanthanum chloride. Lanthanum chloride was used at a 2% concentration (2 g/100 ml) in hydrophilic ointment base, USP, and the lanthanum was incorporated in the ointment at the time of exposure. The results of the patch test were read at 72 hours, and a photograph was taken. […] There was a very slight decrease of inflammation due to the presence of the ointment base itself. This slight decrease as a result of the use the emollient only is a well known phenomenon. […] The effect of the lanthanum is clearly much greater than that of the ointment base alone.

[5] = test system: contact sensitization against DNCB; experiment: Effect of topically administered La^3+ on sensitization against DNCB (ear swelling); assay type: in vivo, BALB/c mice
Description: Mice were treated with 50 microliters of 10% La^3+ chloride mixture (500 mg La^3+ chloride dissolved in 5 ml of 95% ethanol:glycerin [4:1 ratio]) applied for five consecutive days to the shaved back surface. Control animals were treated with the ethanol:glycerin vehicle only. On days 6 and 7, 25 microliters of 1.0% DNCB solution was applied to the shaved dorsal back surface. In mice pretreated with topical La^3+, DNCB was applied only to the shaved dorsal skin that had previously been treated with La^3+.

[6] = test system: contact allergic dermatitis; experiment: Patch tests in seven patients with known contact allergic dermatitis, overall; assay type: in vivo, human (patients)
Description: Seven patients with known contact allergic dermatitis were recruited. One had hypersensitivity to nickel, four of these individuals had allergies against formaldehyde, and two had known allergies against chromium sulfate. Three patch test were applied in each individual. Patient number 1 was exposed to nickel sulfate (5% weight per volume) in hydrophilic ointment base USP. "Results" refers to the amount of erythema in the patch test sites at 48 hours, judged on a scale of 0-3+, where 3+ represents maximum erythema and inflammation.

[7] = test system: atopic dermatitis affecting the hands; experiment: Treatment of atopic dermatitis affecting the hands with lanthanum chloride ointment; assay type: in vivo, human (patients); conditions: 5% ointment twice daily, 1-3 months; five patients
Description: Five patients with atopic dermatitis affecting the hands were treated with topical lanthanides. In this protocol individuals were dispensed a 5% lanthanum chloride ointment and were instructed to use a thin film on the hands twice daily immediately before work and immediately upon returning home from work. These individuals did so for a period of 1-3 months.

[8] = test system: suppressor cells (CD4 or CD8 T cell determinants); experiment: Phenotype of the suppressor cells, spleen cells treated in vitro with mab and complement before transfer; assay type: in vivo, mice of the strain AB (H-2^k)
Description: The spleens from mice treated with lanthanum and control animals were removed and homogenized by gently pressing the tissue through a steel mesh. […] Thereafter the cells were washed 2 times and incubated for 20 minutes at 4° C. with a rat anti-mouse Ig mab (ATCC, Rockville, USA). The cells were washed 2 times and incubated for 30 minutes at 37° C. with normal rabbit serum, diluted 1:5 as a source of complement. The serum used was not toxic to the cells. Thereafter the cells were washed 2 times and 10^8 viable cells were injected intravenously into native syngeneic mice.
The non-parametric Mann-Whitney test was used.
To investigate the phenotype of this suppressor cell, spleen cells were harvested from mice which were previously sensitized with DNFB on LaCl3 pretreated skin. […]

DNFB contact sensitivity = experiment: Transfer of hyporesponsiveness to DNFB by spleen cells of mice sensitized on LaCl3 treated skin; assay type: in vivo, mice of the strain AB (H-2^k)
Excerpt: (§1) Inbred mice of the strain AB (H-2^k) reared in the breeding colony of the Humboldt University Berlin were used. The mice were fed with water and standard pellets ad libitum. During all procedures (sensitization, challenge, measurement) the animals were anesthetized by an intraperitoneal injection of hexobarbital sodium salt. The number of animals per experimental group (n) is presented.
The mice were anesthesized in an area of 2.0×2.0 cm on their abdomen, abdominal skin was shaved with a blade, and a 20 microliters of a 0.5% solution of 2,4-dinitro-1-fluorobenzene (DNFB) (Serva, Heidelberg, F.R.G.) in acetone were applied to this site. This procedure was repeated one day later.
The challenge reaction was induced 5 days after the first sensitization by an application of 0.2% DNFB in acetone on the dorsal surfaces of both ears. The ear thickness was measured before and 24 hours after challenge using an engineers micrometer (Peacock, Japan).
(§2) 10 g LaCl3 ×7H2 O (Laborchemie Apolda, G.D.R.) was dissolved in 10 ml water and incorporated into unguentum alcoholum lanae aquosum. The previously shaved sensitization site on the abdominal skin of the mice was treated at the days numbered -1, 0, and +1 with this ointment. At the days 0 and +1, when contact sensitization with DNFB was performed, the ointment was applied on hour after sensitization, so that the penetration of the DNFB was not influenced by the ointment.
The spleens from mice treated with lanthanum and control animals were removed and homogenized by gently pressing the tissue through a steel mesh. The cell were suspended in RPMI 1640 medium (SIFIN, Berlin, G.D.R.) and were washed three times by centrifugation at 300 g for 10 minutes and resuspended. The treatment with monoclonal antibodies (mab) was performed by incubating the cells for 20 minutes with the L3T4 mab (clone GK 1.5, ATCC, Rockville, USA) or the anti-Lyt 2 mab (clone 53-6, ATCC, Rockville, USA) in a final dilution of 1:50. Thereafter the cells were washed 2 times and incubated for 20 minutes at 4° C. with a rat anti-mouse Ig mab (ATCC, Rockville, USA). […]

[9] = test system: delayed hypersensitivity to ovalbumin; experiment: Antigenic specificity of the suppressor cells (ovalbumin response of recipients); assay type: in vivo, mice of the strain AB (H-2^k)
Description: as §1, §2
The spleens from mice treated with lanthanum and control animals were removed and homogenized by gently pressing the tissue through a steel mesh. […]
Other groups of mice were sensitized by injection 50 microliters of ovalbumin (Serva, Heidelberg, F.R.G.) emulsified in 20 microliters of complete Freund's adjuvant (Difco laboratories, Detroit, U.S.A.) subcutaneously into the base of the tail. […] One day later foodpad swelling was measured. […]

[10] = assay type: in vivo, human (patients with atopic dermatitis)
Description: To date, eight patterns with endogenous eczema (atopic dermatitis) have been treated with topical lanthanides. In three individuals, atopic dermatitis affected the majority of the body surface. These three patients were treated with a single total body application of lanthanum chloride (5% in hydrophilic ointment base). Blood levels of lanthanum were measured by atomic absorption spectroscopy, over a period of 1/2 to 24 hours after the single application.

[11] = 0.25 mg per animal intraperitoneally for five days, vs control animals

In the case of `COc1ccc([C@@H]2Sc3ccccc3N(CCN(C)C)C(=O)[C@@H]2OC(C)=O)cc1` [diltiazem, 1,5-Benzothiazepin-4(5H)one, 3-acetoy lox-5-(2-(dimethylamine)ethyl)-2,3-dihydro-2(4-methoxyphenyl)-, monohydrochloride, (+)-cis], the LD50 [1] is listed as 60 mg per kg, the “reduction in the contact hypersensitivity response” value ([2]; 30 mg/kg intraperitoneally two times a day for three days, p=0.001) is listed as 67% and the “decrease in ear thickness 24 h post-challenge” value ([2]; FIG. 3, vs. solvent only, p<0.001) is listed as 67%. The “difference in ear swelling between pretreated and control animals” value ([2]; statement follows negative controls (challenged, not sensitized) 0.03±0.01 mm) was “not statistically significant” and the ear swelling ([2]; vehicle control 0.15±0.02 mm) was 0.05±0.01 mm.

In the case of lanthanum citrate [La^3+ citrate], the “accumulation in the skin” value [3] is listed as “accumulated in the skin”, the “decrease in density of ATPase positive cells” value [4, 11] is listed as 13% and the “decrease in number of Ia-positive cells” value [4, 11] is listed as 14%. The “Density of Langerhans cells in ear skin, ATPase” value ([4]; ATPase staining, ± S.E., 0.9% NaCl 807 ± 55) was 702 ± 49 cells/mm^2, the “Density of Langerhans cells in ear skin, Ia” value ([4]; Ia staining, ± S.E., 0.9% NaCl 830 ± 46) was 715 ± 59 cells/mm^2 and the “ELC "rounded up" and without dendrites” value ([4]; in focal areas, ATPase and Ia staining) was “approximately 20%”. For the same compound, the “staining of "round" cells by the ATPase technique” value ([4]; subjectively measured by darkening of the cell body) was “more darkly stained”.

In the case of `[Cl][La]([Cl])[Cl]` [lanthanum chloride, Lanthanum chloride], the “inflammation in patch test” value (formaldehyde allergy) is reported as “almost totally abolished”, the ear swelling ([5]; 24 h post-challenge, control 0.12±0.02 mm, p=0.028) is reported as 0.05±0.02 mm and the “decrease in ear thickness 24 h post-challenge” value ([5]; FIG. 2, topical, vs. non-La-treated animals, p<0.01, challenge 25 μl of 0.25% DNCB) is reported as 58%. The “difference in ear swelling between pretreated and control animals” value ([5]; statement follows negative control (challenged without prior sensitization) 0.03±0.01 mm) was “not statistically significant”, the “reduction in the contact hypersensitivity response” value ([5]; topical, 50 microliters of 10% La^3+ chloride, five days) was 58% and the “suppression of inflammation in all individuals” value ([6]; 5% lanthanum chloride at the time of exposure to known allergen) was “significant suppression of inflammation”. The “suppression of inflammation upon challenge” value ([6]; seven patients, known sensitizing agents) was “dose dependent effect in suppression of inflammation”, the “fissuring, oozing, and puritis” value [7] was “decrease” and the hand dermatitis [7] was “significant improvement”. The “suppressor T cell population induced” value ([8]; DNFB-sensitized mice) was “a splenic CD4-CD8+ suppressor T cell population is induced”, the “% Suppression” value ([8]; spleen cells of LaCl3-treated, DNFB-sensitized donors, in vitro treatment as labelled (LaCl3 line = no treatment of cells), n 5) was 100% and the Ear thickness ([8]; ± SD, spleen cells of LaCl3-treated, DNFB-sensitized donors, in vitro treatment as labelled (LaCl3 line = no treatment of cells), no cell transfer 50 ± 4.2, n 5) was 28 ± 2.1 10^-2 mm. For the same compound, the “% Suppression” value (DNFB contact sensitivity; recipients of cells from donors DNFB-sensitized on LaCl3 treated skin, n 7) was 88%, the “transfer of hyporesponsiveness to DNFB by spleen cells” value (DNFB contact sensitivity; topical LaCl3 treatment of donors) was “transferred the hyporesponsiveness to DNFB to native syngeneic recipients” and the Ear thickness (DNFB contact sensitivity; ± SD, recipients of cells from donors DNFB-sensitized on LaCl3 treated skin, n 7, p 0.01, no cell transfer 46 ± 4.8) was 29 ± 2.4 10^-2 mm. The “footpad swelling response of the recipients to ovalbumin” value ([9]; transferred cells from mice sensitized with DNFB on LaCl3-treated skin) was “not affected”, the “Ear thickness (footpad swelling per footnote)” value ([9]; ± SD, DNFB sensitization on LaCl3 treated skin, recipients immunized with ovalbumin, n 8, NS, no cell transfer .68 ± .12) was “.68 ± .09 10^-2 mm” and the “penetration of the stratum corneum of the epidermis” value [10] was “does penetrate the stratum corneum of the epidermis”. For the same compound, the “time of peak blood level” value ([10]; human, in vivo, topical or ocular) was “approximately 4 hours”, the “Blood Concentration of La^+ 3” value ([10]; human, in vivo, topical or ocular, 0.5 h) was 4 ± 2.8 ng/mL and the “Blood Concentration of La^+ 3” value ([10]; human, in vivo, topical or ocular, 1 h) was 12.3 ± 2.3 ng/mL. The “Blood Concentration of La^+ 3” value ([10]; human, in vivo, topical or ocular, 2 h) was 12.16 ± 3 ng/mL, the “Blood Concentration of La^+ 3” value ([10]; human, in vivo, topical or ocular, 4 h) was 30.9 ± 2.2 ng/mL and the “Blood Concentration of La^+ 3” value ([10]; human, in vivo, topical or ocular, 12 h) was 14 ± 1.6 ng/mL. For the same compound, the “Blood Concentration of La^+ 3” value ([10]; human, in vivo, topical or ocular, 24 h) was 11 ± 3.6 ng/mL and the “blood level relative to levels known to produce toxicity in animals and humans” value ([10]; in vivo) was “well below those levels known to produce toxicity in animals and humans”.
